Measurements reported in patent publication US8642012B2, “Methods of treatment using ammonia-scavenging drugs” (Hyperion Therapeutics, Inc., priority 2008, dated 2014).
“Also recorded” adds a separate entry of the source.

What was measured:
[1] = Adult UCD patients, sodium PBA vs HPN-100: urinary PAGN excretion; assay type: in vivo, human; conditions: for PAGN excretion: equimolar rates (n=10)
Source text: (§1) Subjects stayed on the 100% HPN-100 dose for one week and were then re-admitted to the study unit for repeated PK (Visit 11-1), ammonia and urine collections.

venous ammonia = assay: Adult UCD patients, sodium PBA vs HPN-100: venous ammonia pharmacodynamics; assay type: in vivo, human; conditions: for Venous ammonia Cmaxss, Mean / Venous ammonia Cmaxss, Median / Venous ammonia TN-AUC, Mean / Venous ammonia TN-AUC, Median: N 10 UCD subjects; for Venous ammonia Cmaxss, Mean / Venous ammonia Cmaxss, Median / Venous ammonia TN-AUC, Mean / Venous ammonia TN-AUC, Median / Venous ammonia Cmaxss / Venous ammonia TN-AUC: seven days of dosing, steady state; for TN-AUC (NH3): plasma ammonia; for NH3: Total AUC / NH3 exposure: DAY (hours 6-12) / NH3 exposure: NIGHT (hours 12-24) / NH3 Cmax: equimolar rates (n=10); for NH3 Cmax: in µmol/L
Source text: as §1

[2] = HPN-100 in subjects with cirrhosis and healthy adults: urinary PAGN excretion; assay type: in vivo, human; conditions: for Molar % of dose ammonia scavenged, Mean (SD): after dosing on day 15 (0-48 hours)
Experimental: (§2) To determine its pharmacokinetic (PK) and pharmacodynamic (PD) profile in patients with liver disease, clinical testing was conducted in which HPN-100 was administered orally as a single dose (100 mg/kg/day on day 1), and twice daily for 7 consecutive days (200 mg/kg/day on days 8 through 14, in two doses of 100 mg/kg per dose), to subjects with hepatic impairment with cirrhosis (Child-Pugh scores of A, B, or C) and to a gender and age-matched control group of healthy adults with normal hepatic function. On day 15, subjects received a single dose of HPN-100 (100 mg/kg). PK blood samples were taken pre-dose, at 15 and 30 minutes post-dose, and at 1, 1.5, 2, 3, 4, 6, 8, 12, and 24 hours post-dose on days 1, 8, and 15, and at 48 hours after dosing on days 1 and 15. On days 9-14, blood samples were taken pre-morning dose and at 2 hours post-morning dose. Urine was collected 0-4, 4-8, 8-12, and 12-24 hours post-dose on days 1, 8, and 15, and at 24-48 hours post-dose on days 1 and 15.

[3] = ADME study of radio labeled sodium PBA or HPN-100 in cynomolgous monkeys; assay type: in vivo; conditions: 600 mg/kg single dose
Source text: These monkeys were chosen because, like humans (and unlike most other species), they metabolize PAA to PAGN and thus provide a useful model for testing prodrugs of PAA.

[4] = Overall findings across the clinical studies (conversion to urinary PAGN, tolerability); assay type: in vivo, human
Source text: These are followed by a biological explanation for the findings.

[5] = Adult UCD patients switched from sodium PBA to equimolar HPN-100: plasma PK at steady state; assay type: in vivo, human
Source text: as §1

[6] = Adult UCD patients, sodium PBA vs HPN-100: safety and patient preference; assay type: in vivo, human; conditions: UCD patients (n=10)
Source text: as §1

[7] = HPN-100 in subjects with cirrhosis (Child-Pugh A, B, C) and healthy adults: plasma PK; assay type: in vivo, human
Experimental: as §2

[8] = PK/PD modeling (NONMEM VI) of plasma and urinary metabolite data from the clinical studies; design: species or system human
Source text: Since hepatocytes and possibly enterocytes contain the enzymes necessary for conversion of PBA to PAA and conversion of PAA to PAGN and since glutamine is present in the splanchnic as well as the systemic circulation, it is likely that PBA can be converted to PAGN prior to reaching the systemic circulation (i.e. “pre-systemically”) and that this PBA is fully effective with respect to ammonia scavenging (FIG. 6); i.e. fully active. To verify this possibility, PK/PD modeling using NONMEM VI (Icon, Ellicot City, Md.) was carried out on plasma and urinary metabolite data (over 5000 data points) from the clinical studies described above involving healthy adults, subjects with cirrhosis and UCD subjects.

[9] = healthy adults; single dose; urine collected to 24 hours
[10] = individual UCD patients; Brusilow 1991, Brusilow and Finkelstien 1993; cited from earlier work
[11] = Single dose PK in healthy adults: plasma PBA, PAA, PAGN; assay type: in vivo, human; conditions: healthy volunteers, single dose 3 g/m^2/day PBA mole equivalent
Experimental: To assess its pharmacokinetic (PK) and pharmacodynamic (PD) profile, HPN-100 was administered as a single dose to 24 healthy adults. Pharmacokinetic samples were taken pre-dose and at 15 and 30 minutes post-dose and 1, 1.5, 2, 3, 4, 6, 8, 12, 24, and 48 hours post-dose.
Plasma levels of PAA, PBA, and PAGN were monitored periodically for 12-24 hours by known methods.

[12] = UCD patients, equimolar dosages
[13] = UCD patients, not statistically significant
[14] = plasma, UCD subjects, multiple dose, PBA mole equivalent
[15] = steady state, UCD patients N = 10, arithmetic mean

For `O=C(CCCc1ccccc1)OCC(COC(=O)CCCc1ccccc1)OC(=O)CCCc1ccccc1` [HPN-100, glyceryl tri-[4-phenylbutyrate]], the PAGN excretion [1] was “Comparable”, the “Venous ammonia Cmaxss, Mean” value (venous ammonia) was 56.3 µmol/L and the “Venous ammonia Cmaxss, Median” value (venous ammonia) was 60.0 µmol/L. For the same compound, the “Venous ammonia TN-AUC, Mean” value (venous ammonia) was 26.1 µmol/L, the “Venous ammonia TN-AUC, Median” value (venous ammonia) was 22.3 µmol/L and the “Venous ammonia Cmaxss” value (venous ammonia; Subject 1001) was 63.0 µmol/L. For the same compound, the “Venous ammonia TN-AUC” value (venous ammonia; Subject 1001) was 19.8 µmol/L, the “Venous ammonia Cmaxss” value (venous ammonia; Subject 1002) was 31.0 µmol/L and the “Venous ammonia TN-AUC” value (venous ammonia; Subject 1002) was 19.3 µmol/L. For the same compound, the “Venous ammonia Cmaxss” value (venous ammonia; Subject 1004) was 106 µmol/L, the “Venous ammonia TN-AUC” value (venous ammonia; Subject 1004) was 35.1 µmol/L and the “Venous ammonia Cmaxss” value (venous ammonia; Subject 1006) was 13.0 µmol/L. The “Venous ammonia TN-AUC” value (venous ammonia; Subject 1006) was 8.30 µmol/L, the “Venous ammonia Cmaxss” value (venous ammonia; Subject 2001) was 33.0 µmol/L and the “Venous ammonia TN-AUC” value (venous ammonia; Subject 2001) was 22.7 µmol/L. The “Venous ammonia Cmaxss” value (venous ammonia; Subject 2003) was 74.0 µmol/L, the “Venous ammonia TN-AUC” value (venous ammonia; Subject 2003) was 21.1 µmol/L and the “Venous ammonia Cmaxss” value (venous ammonia; Subject 3002) was 36.0 µmol/L. For the same compound, the “Venous ammonia TN-AUC” value (venous ammonia; Subject 3002) was 21.9 µmol/L, the “Venous ammonia Cmaxss” value (venous ammonia; Subject 3004) was 75.0 µmol/L and the “Venous ammonia TN-AUC” value (venous ammonia; Subject 3004) was 38.4 µmol/L. The “Venous ammonia Cmaxss” value (venous ammonia; Subject 5001) was 57.0 µmol/L, the “Venous ammonia TN-AUC” value (venous ammonia; Subject 5001) was 35.5 µmol/L and the “Venous ammonia Cmaxss” value (venous ammonia; Subject 5002) was 75.2 µmol/L. For the same compound, the “Venous ammonia TN-AUC” value (venous ammonia; Subject 5002) was 39.1 µmol/L, the “Mean percentage of normal ammonia values” (venous ammonia; UCD patients) was 83% and the “Peak venous ammonia concentration” value (venous ammonia; UCD patients) was 56.3 µmol/L. For the same compound, the “Venous ammonia mean TN-AUC” value (venous ammonia; UCD patients) was 26.1 µmol/L, the “Ammonia level reached in patients above about 40 μmol/L on sodium PBA” value (venous ammonia; UCD patients, equimolar dosages, FIG. 12) was “below 40 μmol/L” and the TN-AUC (NH3) (venous ammonia; [12]) was 26.1 µM. For the same compound, the “NH3: Total AUC” value (venous ammonia; UCD patients) was 26.1 ± 10.3, the “NH3 exposure: DAY (hours 6-12)” value (venous ammonia; UCD patients) was 32.9 and the “NH3 exposure: NIGHT (hours 12-24)” value (venous ammonia; UCD patients) was 21.3. For the same compound, the “NH3 Cmax” value (venous ammonia; UCD patients) was 56.3 ± 27.9, the “Peak venous ammonia, lowering versus sodium PBA” value (venous ammonia; [13]) was about 29% and the “Venous ammonia TN-AUC, lowering versus sodium PBA” value (venous ammonia; [13]) was about 31%. The “Effect of hepatic impairment on ammonia-scavenging ability” value ([2]; Child-Pugh groups vs healthy volunteers) was “no significant effect”, the “Molar % of dose ammonia scavenged, Mean (SD)” value (“Molar % … (SD)” below) ([2]; Child-Pugh A (8)) was 159.2 (60.9) Molar % and the “Molar % … (SD)” value ([2]; Child-Pugh B (8)) was 116.3 (58.3) Molar %. The “Molar % … (SD)” value ([2]; Child-Pugh C (8)) was 169.9 (130.1) Molar %, the “Molar % … (SD)” value ([2]; Healthy Adults (8)) was 137.2 (43.9) Molar % and the “Intact HPN-100 in systemic circulation or in excretions” value [3] was “essentially no HPN-100”. For the same compound, the Indications of toxicity ([4]; at doses equimolar to the approved PBA dosage of 20 g/day) was “no indications of toxicity”, the “Dietary protein whose waste nitrogen is eliminated per gram of drug per day” value ([4]; given 60-75% conversion rate) was about 1.3 grams and the “Effect on creatinine levels” value ([4]; human, in vivo) was “little to no effect”. The “Relationship between dose and PAGN output” value ([4]; up to doses of 17.4 mL) was “linear relationship”, the “Intact HPN-100 in blood samples” value ([5]; UCD patients, all blood samples) was “either not detectable or below the limits of quantitation” and the “Adverse effects, number of subjects reporting” value [6] was 5. The “Adverse effects, total number reported” value [6] was 15, the “PK and PD in fed versus fasted state” value ([7]; after fasting (day 1) vs with a meal (day 8)) was “no PK or PD differences; also recorded: indistinguishable” and the “Alternative metabolites PAG, PBG and PBGN in plasma” value ([7]; all plasma samples, all subject groups) was “below the limit of quantification”.

With `O=C([O-])CCCc1ccccc1.[Na+]` [Sodium PBA, sodium phenylbutyrate] the Absorption rate constant [8] was 1.34 h⁻¹, the “Fraction of PBA converted pre-systemically (to PAA and PAGN)” value [8] was 1% and the “Urine collection interval with highest PAGN output” value ([1]; 24 hour pattern) was 6 to 12 h. The “Conversion into urinary PAGN” value ([1]; average) was about 60%, the PAGN excretion [1] was “Comparable” and the “Mean PAGN amount excreted, 0-6 hours” value ([1]; urine) was 2,452,838 μg. The “Mean PAGN amount excreted, 0-12 hours” value ([1]; urine) was 4,859,121 μg, the “Mean PAGN amount excreted, 12-24 hours” value ([1]; urine) was 4,645,447 μg and the “Venous ammonia Cmaxss, Mean” value (venous ammonia) was 79.1 µmol/L. The “Venous ammonia Cmaxss, Median” value (venous ammonia) was 83.6 µmol/L, the “Venous ammonia TN-AUC, Mean” value (venous ammonia) was 38.4 µmol/L and the “Venous ammonia TN-AUC, Median” value (venous ammonia) was 36.8 µmol/L. For the same compound, the “Venous ammonia Cmaxss” value (venous ammonia; Subject 1001) was 29.0 µmol/L, the “Venous ammonia TN-AUC” value (venous ammonia; Subject 1001) was 16.47 µmol/L and the “Venous ammonia Cmaxss” value (venous ammonia; Subject 1002) was 31.0 µmol/L. For the same compound, the “Venous ammonia TN-AUC” value (venous ammonia; Subject 1002) was 20.9 µmol/L, the “Venous ammonia Cmaxss” value (venous ammonia; Subject 1004) was 85.0 µmol/L and the “Venous ammonia TN-AUC” value (venous ammonia; Subject 1004) was 46.8 µmol/L. For the same compound, the “Venous ammonia Cmaxss” value (venous ammonia; Subject 1006) was 150 µmol/L, the “Venous ammonia TN-AUC” value (venous ammonia; Subject 1006) was 71.5 µmol/L and the “Venous ammonia Cmaxss” value (venous ammonia; Subject 2001) was 88.0 µmol/L. The “Venous ammonia TN-AUC” value (venous ammonia; Subject 2001) was 52.1 µmol/L, the “Venous ammonia Cmaxss” value (venous ammonia; Subject 2003) was 31.0 µmol/L and the “Venous ammonia TN-AUC” value (venous ammonia; Subject 2003) was 17.5 µmol/L. The “Venous ammonia Cmaxss” value (venous ammonia; Subject 3002) was 108 µmol/L, the “Venous ammonia TN-AUC” value (venous ammonia; Subject 3002) was 22.3 µmol/L and the “Venous ammonia Cmaxss” value (venous ammonia; Subject 3004) was 115 µmol/L. The “Venous ammonia TN-AUC” value (venous ammonia; Subject 3004) was 62.9 µmol/L, the “Venous ammonia Cmaxss” value (venous ammonia; Subject 5001) was 82.2 µmol/L and the “Venous ammonia TN-AUC” value (venous ammonia; Subject 5001) was 35.8 µmol/L. The “Venous ammonia Cmaxss” value (venous ammonia; Subject 5002) was 72.2 µmol/L, the “Venous ammonia TN-AUC” value (venous ammonia; Subject 5002) was 37.7 µmol/L and the “Mean percentage of normal ammonia values” (venous ammonia; UCD patients) was 58%. For the same compound, the “Peak venous ammonia concentration” value (venous ammonia; UCD patients) was 79.1 µmol/L, the “Venous ammonia mean TN-AUC” value (venous ammonia; UCD patients) was 38.4 µmol/L and the TN-AUC (NH3) (venous ammonia; [12]) was 38.4 µM. The “NH3: Total AUC” value (venous ammonia; UCD patients) was 38.4 ± 19.6, the “NH3 exposure: DAY (hours 6-12)” value (venous ammonia; UCD patients) was 37.1 and the “NH3 exposure: NIGHT (hours 12-24)” value (venous ammonia; UCD patients) was 36.3. The “NH3 Cmax” value (venous ammonia; UCD patients) was 79.1 ± 40.1, the “Urinary excretion of PAGN” value [9] was 4905 ± 1414 mg and the “Unchanged PBA as share of the administered dosage” value ([3]; excreted) was 48%. For the same compound, the “PAGN as share of the administered radio labeled dose” value ([3]; urine) was 23%, the “Fraction excreted in the urine as PAGN” value [10] was 80-90% and the “PBA AUC24” value [11] was 542.6 µg·h/mL. The “PBA Cmax” value [11] was 221.0 µg/mL, the “PBA Tmax” value [11] was 54 min and the “PBA T½” value [11] was 42 min. For the same compound, the “Conversion into urinary PAGN, overall efficiency on average” value ([4]; oral, typical/average across clinical studies) was 60-75%, the “AUC (PBA)” value [5, 12] was 739 (49) μg-hr/mL and the “PBA AUC24” value [5, 14] was 739.0 µg·h/mL. The “PBA Cmax” value [5, 14] was 141.0 µg/mL, the “PBA Tmax” value [5, 14] was 2.1 h and the “PAA in plasma Cmaxss” value [5, 15] was 53.0 µg/mL. The “PAA in plasma Cminss” value [5, 15] was 3.56 µg/mL, the “PAGN in plasma Cmaxss” value [5, 15] was 83.3 µg/mL and the “PAGN in plasma Cminss” value [5, 15] was 16.8 µg/mL. The “PBA in plasma AUC0-24” value [5, 15] was 739 µg·h/mL, the “PBA in plasma Cmaxss” value [5, 15] was 141 µg/mL and the “PBA in plasma Cminss” value [5, 15] was 0.588 µg/mL. The “Adverse effects, number of subjects reporting” value [6] was 7, the “Adverse effects, total number reported” value [6] was 21 and the Serious adverse effects [6] was 2 (symptomatic. For the same compound, the Serious adverse effects ([6]; listed as PBA) was “two subjects”.
